Read-outs that look alike come from different tables or passages of the source. *1 amine or outer side, *2 acyl side, *3 side chain or, on linkers, in order; H or OH if unused. Where a SMILES comes first, the peptide text is derived from it. Side-chain parts run from the residue outwards. [ ]: non-standard residue; d: D form. The star is where a group is joined. C18 diacid = O=C(O)CCCCCCCCCCCCCCCCC(=O)*; γGlu = O=C(O)[C@H](CCC(=O)[*:2])N[*:1]; Aib = CC(C)(N)C(=O)O
Key:
[1] = Solubility in 0.1 M phosphate buffer at pH 7; type: physicochemical; conditions: 0.1 M phosphate buffer at pH 7, 10 mg/mL final peptide concentration, shaking 2 hours at room temperature, peptides as TFA-salts; measured sample pH 6.5-7.0
hGIPR = molecular target: T1, hGIPR (Homo sapiens, UniProt P48546); assay: hGIPR CreLuc assay in 0.5% and 100% plasma (CHO CRE-luciferase reporter cells); type: cell-based
T1 construct: expressed in transfected cells; host or cells: CHO CRE-luciferase reporter cells
T1 sequence (P48546 22-466): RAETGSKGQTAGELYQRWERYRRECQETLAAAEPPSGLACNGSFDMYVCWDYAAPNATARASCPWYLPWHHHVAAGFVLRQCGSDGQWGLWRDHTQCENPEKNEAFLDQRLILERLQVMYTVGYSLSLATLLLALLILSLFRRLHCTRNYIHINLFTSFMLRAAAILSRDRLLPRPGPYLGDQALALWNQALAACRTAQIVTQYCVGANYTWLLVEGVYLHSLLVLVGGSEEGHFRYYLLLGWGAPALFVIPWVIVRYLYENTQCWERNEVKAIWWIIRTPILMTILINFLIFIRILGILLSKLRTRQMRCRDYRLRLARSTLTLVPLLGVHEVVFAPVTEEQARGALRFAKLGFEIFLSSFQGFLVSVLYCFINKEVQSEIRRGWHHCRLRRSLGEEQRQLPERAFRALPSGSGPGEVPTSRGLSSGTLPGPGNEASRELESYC

hGLP1R = molecular target: T2, hGLP1R (Homo sapiens, UniProt P43220); assay: hGLP1R CreLuc assay in 0.5% and 100% plasma (HEK-293 CRE-luciferase reporter cells); type: cell-based; conditions: HEK-293 reporter cells
T2 construct: expressed in transfected cells; host or cells: HEK-293 CRE-luciferase reporter cells

[2] = 0.5% human plasma, read-out: hGIPR 0.5% hP
[3] = 0.5% human plasma, read-out: hGLP1R 0.5% hP
[4] = 100% human plasma, read-out: hGIPR 100% hP

T2 sequence (P43220 24-463): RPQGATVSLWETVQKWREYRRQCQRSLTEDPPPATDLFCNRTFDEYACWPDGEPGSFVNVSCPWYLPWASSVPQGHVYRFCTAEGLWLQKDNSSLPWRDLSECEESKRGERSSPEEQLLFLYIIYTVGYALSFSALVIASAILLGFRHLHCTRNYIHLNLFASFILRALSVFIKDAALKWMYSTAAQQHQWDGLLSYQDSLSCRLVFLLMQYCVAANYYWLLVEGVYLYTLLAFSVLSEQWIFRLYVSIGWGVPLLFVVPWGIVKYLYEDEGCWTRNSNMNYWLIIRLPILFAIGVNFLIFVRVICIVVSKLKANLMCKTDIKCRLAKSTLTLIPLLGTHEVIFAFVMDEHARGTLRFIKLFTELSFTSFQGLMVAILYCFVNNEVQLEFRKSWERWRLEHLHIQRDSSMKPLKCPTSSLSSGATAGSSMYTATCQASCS

solubility at 2 h [1] [µg/mL] | EC50 (hGIPR; [2]) [nM] | EC50 (hGLP1R; [3]) [nM] | EC50 (hGIPR; [4]) [nM] | EC50 (hGLP1R; 100% human plasma, read-out: hGLP1R 100% hP) [nM] | Compound
4300 | 0.1 | 0.4 | – | – | CC[C@H](C)[C@H](NC(=O)[C@H](CC(C)C)NC(=O)[C@H](Cc1c[nH]cn1)NC(=O)[C@H](CCCNC(=N)N)NC(=O)[C@@H](NC(=O)[C@H](Cc1ccccc1)NC(=O)[C@H](C)NC(=O)C(C)(C)NC(=O)[C@H](CCC(N)=O)NC(=O)[C@H](C)NC(=O)[C@H](CCC(N)=O)NC(=O)[C@H](CCCCN)NC(=O)[C@H](CCC(=O)O)NC(=O)[C@H](CC(C)C)NC(=O)C(C)(C)NC(=O)[C@@H](NC(=O)[C@H](CO)NC(=O)[C@H](Cc1ccc(O)cc1)NC(=O)[C@H](CC(=O)O)NC(=O)[C@H](CO)NC(=O)[C@@H](NC(=O)[C@H](Cc1ccccc1)NC(=O)[C@@H](NC(=O)CNC(=O)[C@H](CCC(=O)O)NC(=O)C(C)(C)NC(=O)[C@@H](N)Cc1ccc(O)cc1)[C@@H](C)O)[C@@H](C)O)[C@@H](C)CC)C(C)C)C(=O)N[C@@H](CC(N)=O)C(=O)N[C@@H](CCCCNC(=O)CCCCCNC(=O)CC[C@H](NC(=O)CC[C@H](NC(=O)CC[C@H](NC(=O)CC[C@H](NC(=O)CC[C@H](NC(=O)CCCCCCCCCCCCCCCCC(=O)O)C(=O)O)C(=O)O)C(=O)O)C(=O)O)C(=O)O)C(=O)NC(C)(C)C(=O)N[C@H](C(=O)N[C@@H](CCCNC(=N)N)C(=O)N[C@@H](CCC(N)=O)C(=O)N[C@@H](CCCNC(=N)N)C(=O)N[C@@H](Cc1ccc(O)cc1)C(N)=O)[C@@H](C)O [Compound 13, Y-Aib-E-G-T-F-T-S-D-Y-S-I-Aib-L-E-K-Q-A-Q-Aib-A-F-V-R-H-L-I-N-K(1,3)-Aib-T-R-Q-R-Y-NH2.C18DA-gGlu-gGlu-gGlu-gGlu-gGlu-AHX(1,2)]
5100 | 0.4 | 0.9 | 7.1 | 2.8 | CC[C@H](C)[C@H](NC(=O)[C@H](CC(C)C)NC(=O)[C@H](Cc1c[nH]cn1)NC(=O)[C@H](CCCNC(=N)N)NC(=O)[C@@H](NC(=O)[C@H](Cc1ccccc1)NC(=O)[C@H](CCC(=O)O)NC(=O)C(C)(C)NC(=O)[C@H](CCC(N)=O)NC(=O)[C@H](C)NC(=O)[C@H](CCC(N)=O)NC(=O)[C@H](CCC(=O)O)NC(=O)[C@H](CCC(=O)O)NC(=O)[C@H](CC(C)C)NC(=O)C(C)(C)NC(=O)[C@@H](NC(=O)[C@H](CO)NC(=O)[C@H](Cc1ccc(O)cc1)NC(=O)[C@H](CC(=O)O)NC(=O)[C@H](CO)NC(=O)[C@@H](NC(=O)[C@H](Cc1ccccc1)NC(=O)[C@@H](NC(=O)CNC(=O)[C@H](CCC(=O)O)NC(=O)C(C)(C)NC(=O)[C@@H](N)Cc1ccc(O)cc1)[C@@H](C)O)[C@@H](C)O)[C@@H](C)CC)C(C)C)C(=O)N[C@@H](CC(N)=O)C(=O)N[C@@H](CCCCNC(=O)CC[C@H](NC(=O)CC[C@H](NC(=O)CC[C@H](NC(=O)CC[C@H](NC(=O)CCCCCCCCCCCCCCCCC(=O)O)C(=O)O)C(=O)O)C(=O)O)C(=O)O)C(=O)NC(C)(C)C(=O)N[C@H](C(=O)N[C@@H](CCCNC(=N)N)C(=O)N[C@@H](CCC(N)=O)C(=O)N[C@@H](CCCNC(=N)N)C(=O)N[C@@H](Cc1ccc(O)cc1)C(N)=O)[C@@H](C)O [Compound 129, Y-Aib-E-G-T-F-T-S-D-Y-S-I-Aib-L-E-E-Q-A-Q-Aib-E-F-V-R-H-L-I-N-K(1,3)-Aib-T-R-Q-R-Y-NH2.C18DA-gGlu-gGlu-gGlu-gGlu(1,2)] (H-Y[Aib]EGTFTSDYSI[Aib]LEEQAQ[Aib]EFVRHLINK([γGlu-γGlu-γGlu-γGlu-C18 diacid])[Aib]TRQRY-NH2)
3200 | 0.5 | 0.6 | 14.4 | – | CC[C@H](C)[C@H](NC(=O)[C@H](CC(C)C)NC(=O)[C@H](Cc1c[nH]cn1)NC(=O)[C@H](CCCNC(=N)N)NC(=O)[C@@H](NC(=O)[C@H](Cc1ccccc1)NC(=O)[C@H](C)NC(=O)C(C)(C)NC(=O)[C@H](CCC(N)=O)NC(=O)[C@H](C)NC(=O)[C@H](CCC(N)=O)NC(=O)[C@H](CCCCN)NC(=O)[C@H](CCC(=O)O)NC(=O)[C@H](CC(C)C)NC(=O)C(C)(C)NC(=O)[C@@H](NC(=O)[C@H](CO)NC(=O)[C@H](Cc1ccc(O)cc1)NC(=O)[C@H](CC(=O)O)NC(=O)[C@H](CO)NC(=O)[C@@H](NC(=O)[C@H](Cc1ccccc1)NC(=O)[C@@H](NC(=O)CNC(=O)[C@H](CCC(=O)O)NC(=O)C(C)(C)NC(=O)[C@@H](N)Cc1ccc(O)cc1)[C@@H](C)O)[C@@H](C)O)[C@@H](C)CC)C(C)C)C(=O)N[C@@H](CC(N)=O)C(=O)N[C@@H](CCCCNC(=O)CC[C@H](NC(=O)CC[C@H](NC(=O)CC[C@H](NC(=O)CC[C@H](NC(=O)CC[C@H](NC(=O)CCCCCCCCCCCCCCCCC(=O)O)C(=O)O)C(=O)O)C(=O)O)C(=O)O)C(=O)O)C(=O)N[C@@H](CC(C)C)C(=O)N[C@H](C(=O)N[C@@H](CCCNC(=N)N)C(=O)N[C@@H](CCC(N)=O)C(=O)N[C@@H](CCCNC(=N)N)C(=O)N[C@@H](Cc1ccc(O)cc1)C(N)=O)[C@@H](C)O [Compound 158, Y-Aib-E-G-T-F-T-S-D-Y-S-I-Aib-L-E-K-Q-A-Q-Aib-A-F-V-R-H-L-I-N-K(1,3)-L-T-R-Q-R-Y-NH2.C18DA-gGlu-gGlu-gGlu-gGlu-gGlu(1,2)]
8700 | 0.2 | 0.1 | 5.5 | – | CC[C@H](C)[C@H](NC(=O)[C@H](CC(C)C)NC(=O)[C@H](Cc1c[nH]cn1)NC(=O)[C@H](CCCNC(=N)N)NC(=O)[C@@H](NC(=O)[C@H](Cc1ccccc1)NC(=O)[C@H](CCC(=O)O)NC(=O)C(C)(C)NC(=O)[C@H](CCC(N)=O)NC(=O)[C@H](C)NC(=O)[C@H](CCC(N)=O)NC(=O)[C@H](CCCCN)NC(=O)[C@H](CC(=O)O)NC(=O)[C@H](CC(C)C)NC(=O)C(C)(C)NC(=O)[C@@H](NC(=O)[C@H](CO)NC(=O)[C@H](Cc1ccc(O)cc1)NC(=O)[C@H](CC(=O)O)NC(=O)[C@H](CO)NC(=O)[C@@H](NC(=O)[C@H](Cc1ccccc1)NC(=O)[C@@H](NC(=O)CNC(=O)[C@H](CCC(=O)O)NC(=O)C(C)(C)NC(=O)[C@@H](N)Cc1ccc(O)cc1)[C@@H](C)O)[C@@H](C)O)[C@@H](C)CC)C(C)C)C(=O)N[C@@H](CC(N)=O)C(=O)N[C@@H](CCCCNC(=O)[C@@H](N)CCCCNC(=O)CC[C@H](NC(=O)CC[C@H](NC(=O)CC[C@H](NC(=O)CC[C@H](NC(=O)CC[C@H](NC(=O)CCCCCCCCCCCCCCCCC(=O)O)C(=O)O)C(=O)O)C(=O)O)C(=O)O)C(=O)O)C(=O)NC(C)(C)C(=O)N[C@H](C(=O)N[C@@H](CCCNC(=N)N)C(=O)N[C@@H](CCC(N)=O)C(=O)N[C@@H](CCCNC(=N)N)C(=O)N[C@@H](Cc1ccc(O)cc1)C(N)=O)[C@@H](C)O [Compound 113, Y-Aib-E-G-T-F-T-S-D-Y-S-I-Aib-L-D-K-Q-A-Q-Aib-E-F-V-R-H-L-I-N-K(1,3)-Aib-T-R-Q-R-Y-NH2.C18DA-gGlu-gGlu-gGlu-gGlu-gGlu-eLys(1,2)]
9800 | 0.1 | 0.2 | – | – | CC[C@H](C)[C@H](NC(=O)[C@H](CC(C)C)NC(=O)[C@H](Cc1c[nH]cn1)NC(=O)[C@H](CCCNC(=N)N)NC(=O)[C@@H](NC(=O)[C@H](Cc1ccccc1)NC(=O)[C@H](C)NC(=O)C(C)(C)NC(=O)[C@H](CCC(N)=O)NC(=O)[C@H](C)NC(=O)[C@H](CCC(N)=O)NC(=O)[C@H](CCCCN)NC(=O)[C@H](CCC(=O)O)NC(=O)[C@H](CC(C)C)NC(=O)C(C)(C)NC(=O)[C@@H](NC(=O)[C@H](CO)NC(=O)[C@H](Cc1ccc(O)cc1)NC(=O)[C@H](CC(=O)O)NC(=O)[C@H](CO)NC(=O)[C@@H](NC(=O)[C@H](Cc1ccccc1)NC(=O)[C@@H](NC(=O)CNC(=O)[C@H](CCC(=O)O)NC(=O)C(C)(C)NC(=O)[C@@H](N)Cc1ccc(O)cc1)[C@@H](C)O)[C@@H](C)O)[C@@H](C)CC)C(C)C)C(=O)N[C@@H](CC(N)=O)C(=O)N[C@@H](CCCCNC(=O)CCCCCNC(=O)CCCCCNC(=O)CC[C@H](NC(=O)CC[C@H](NC(=O)CC[C@H](NC(=O)CC[C@H](NC(=O)CC[C@H](NC(=O)CCCCCCCCCCCCCCCCC(=O)O)C(=O)O)C(=O)O)C(=O)O)C(=O)O)C(=O)O)C(=O)NC(C)(C)C(=O)N[C@H](C(=O)N[C@@H](CCCNC(=N)N)C(=O)N[C@@H](CCC(N)=O)C(=O)N[C@@H](CCCNC(=N)N)C(=O)N[C@@H](Cc1ccc(O)cc1)C(N)=O)[C@@H](C)O [Compound 44, Y-Aib-E-G-T-F-T-S-D-Y-S-I-Aib-L-E-K-Q-A-Q-Aib-A-F-V-R-H-L-I-N-K(1,3)-Aib-T-R-Q-R-Y-NH2.C18DA-gGlu-gGlu-gGlu-gGlu-gGlu-AHX-AHX(1,2)]
